# Data as given in publication PMC6829864, “Determination of Ligand Profiles for Pseudomonas aeruginosa Solute Binding Proteins” (International Journal of Molecular Sciences, 2019).
# Entries after “also recorded” stand apart in the source; their conditions may differ.
# How the values were obtained:
# PA3889 (opuCC) [1] = target: T1, PA3889 (opuCC) (Pseudomonas aeruginosa, UniProt Q9HXC4); experiment: Isothermal titration calorimetry, PA3889; type: binding, Pseudomonas aeruginosa PAO1; conditions: 25 °C
# T1 sequence (Q9HXC4 24-311): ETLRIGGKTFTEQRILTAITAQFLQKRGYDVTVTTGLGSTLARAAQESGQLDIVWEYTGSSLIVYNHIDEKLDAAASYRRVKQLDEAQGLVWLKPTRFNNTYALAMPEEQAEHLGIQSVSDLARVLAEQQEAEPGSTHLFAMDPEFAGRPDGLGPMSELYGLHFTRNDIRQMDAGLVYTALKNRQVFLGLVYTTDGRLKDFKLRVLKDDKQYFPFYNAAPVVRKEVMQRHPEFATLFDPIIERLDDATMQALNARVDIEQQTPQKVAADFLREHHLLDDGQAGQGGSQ
# PA3889 (opuCC) [2] = target: T1, PA3889 (opuCC); experiment: DSF thermal shift ligand screening, PA3889; type: binding, Pseudomonas aeruginosa PAO1; conditions: Tm change vs ligand-free protein
# [3] = system: Pseudomonas aeruginosa PAO1; type: cell-based; conditions: chemoeffector 1 mM, except molybdate 0.1 mM
# PA2338 [4] = target: T2, PA2338 (Pseudomonas aeruginosa, UniProt Q9I1E0); experiment: Isothermal titration calorimetry, PA2338; type: binding, Pseudomonas aeruginosa PAO1; conditions: 25 °C
# T2 sequence (Q9I1E0 23-436): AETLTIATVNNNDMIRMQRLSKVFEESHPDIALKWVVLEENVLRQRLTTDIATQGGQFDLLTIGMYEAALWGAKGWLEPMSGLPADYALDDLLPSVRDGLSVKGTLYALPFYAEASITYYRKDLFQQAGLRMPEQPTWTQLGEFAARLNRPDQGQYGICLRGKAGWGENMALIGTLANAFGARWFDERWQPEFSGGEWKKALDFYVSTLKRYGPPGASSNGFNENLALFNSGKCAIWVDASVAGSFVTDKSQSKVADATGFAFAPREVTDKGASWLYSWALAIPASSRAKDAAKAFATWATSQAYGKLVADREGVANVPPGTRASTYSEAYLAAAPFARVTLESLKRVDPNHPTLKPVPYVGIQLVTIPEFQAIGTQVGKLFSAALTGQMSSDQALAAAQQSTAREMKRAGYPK
# PA2338 [5] = target: T2, PA2338; experiment: DSF thermal shift ligand screening, PA2338; type: binding, Pseudomonas aeruginosa PAO1; conditions: Tm change vs ligand-free protein
# PA3610 (potD) [6] = target: T3, PA3610 (potD) (Pseudomonas aeruginosa, UniProt Q9HY16); experiment: Isothermal titration calorimetry, PA3610; type: binding, Pseudomonas aeruginosa PAO1; conditions: 25 °C
# T3 sequence (Q9HY16 21-354): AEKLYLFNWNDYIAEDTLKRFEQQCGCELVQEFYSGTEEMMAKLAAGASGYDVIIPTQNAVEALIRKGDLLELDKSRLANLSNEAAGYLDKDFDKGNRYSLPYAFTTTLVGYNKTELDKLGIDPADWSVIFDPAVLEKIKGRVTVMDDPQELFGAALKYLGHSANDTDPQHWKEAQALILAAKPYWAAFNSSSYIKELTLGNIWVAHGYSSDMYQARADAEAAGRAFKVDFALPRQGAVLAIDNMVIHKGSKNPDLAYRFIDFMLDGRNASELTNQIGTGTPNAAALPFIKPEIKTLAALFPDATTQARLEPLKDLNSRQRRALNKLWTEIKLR
# PA0222 [7] = target: T4, PA0222 (Pseudomonas aeruginosa, UniProt Q9I6R6); experiment: Isothermal titration calorimetry, PA0222; type: binding, Pseudomonas aeruginosa PAO1; conditions: 25 °C
# T4 sequence (Q9I6R6 29-352): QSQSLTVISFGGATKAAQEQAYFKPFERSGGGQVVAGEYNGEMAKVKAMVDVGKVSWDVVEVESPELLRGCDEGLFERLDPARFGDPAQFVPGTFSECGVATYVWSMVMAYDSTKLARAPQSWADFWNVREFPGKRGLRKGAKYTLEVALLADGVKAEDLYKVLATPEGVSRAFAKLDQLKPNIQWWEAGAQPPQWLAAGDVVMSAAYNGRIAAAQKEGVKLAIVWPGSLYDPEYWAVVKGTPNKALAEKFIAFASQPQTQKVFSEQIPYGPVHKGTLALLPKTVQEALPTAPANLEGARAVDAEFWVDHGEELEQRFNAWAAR
# PA2592 [8] = target: T5, PA2592 (Pseudomonas aeruginosa, UniProt Q9I0P5); experiment: biochemical; type: binding
# T5 sequence (Q9I0P5 20-367): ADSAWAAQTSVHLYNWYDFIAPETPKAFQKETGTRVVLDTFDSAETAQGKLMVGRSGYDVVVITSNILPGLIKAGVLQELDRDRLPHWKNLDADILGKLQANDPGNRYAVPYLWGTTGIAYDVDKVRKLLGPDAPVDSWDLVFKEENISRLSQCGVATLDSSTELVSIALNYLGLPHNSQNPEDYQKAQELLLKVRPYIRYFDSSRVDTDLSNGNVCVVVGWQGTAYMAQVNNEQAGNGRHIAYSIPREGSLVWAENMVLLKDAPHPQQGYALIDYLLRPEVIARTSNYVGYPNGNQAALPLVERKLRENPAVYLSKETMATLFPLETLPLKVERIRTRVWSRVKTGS
# PA2592 [9] = target: T5, PA2592; experiment: DSF thermal shift ligand screening, PA2592; type: binding, Pseudomonas aeruginosa PAO1; conditions: arrays PM2A, PM3B, PM5
# PA1342 (aatJ) [10] = target: T6, PA1342 (aatJ) (Pseudomonas aeruginosa, UniProt Q9I402); type: binding; conditions: 25 °C
# T6 sequence (Q9I402 24-302): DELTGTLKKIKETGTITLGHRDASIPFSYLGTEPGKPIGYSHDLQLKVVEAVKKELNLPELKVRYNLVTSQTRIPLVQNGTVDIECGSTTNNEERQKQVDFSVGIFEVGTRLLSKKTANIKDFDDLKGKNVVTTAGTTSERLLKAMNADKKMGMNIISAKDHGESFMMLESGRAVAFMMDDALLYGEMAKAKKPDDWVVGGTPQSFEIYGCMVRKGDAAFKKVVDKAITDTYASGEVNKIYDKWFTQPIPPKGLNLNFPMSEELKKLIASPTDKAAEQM
# PA4687 (hitA) [11] = type: binding, Pseudomonas aeruginosa PAO1
# PA4687 (hitA) [12] = conditions: Tm change vs ligand-free protein
# PA0283 (sbp) [13] = experiment: DSF thermal shift ligand screening, PA0283; type: binding, Pseudomonas aeruginosa PAO1; conditions: Tm change vs ligand-free protein
# PA0283 (sbp) [14] = experiment: Isothermal titration calorimetry, PA0283; type: binding, Pseudomonas aeruginosa PAO1; conditions: 25 °C
# PA1493 (cysP) [15] = target: T7, PA1493 (cysP) (Pseudomonas aeruginosa, UniProt Q9I3L9); experiment: biochemical; type: binding, Pseudomonas aeruginosa PAO1
# T7 sequence (Q9I3L9 23-332): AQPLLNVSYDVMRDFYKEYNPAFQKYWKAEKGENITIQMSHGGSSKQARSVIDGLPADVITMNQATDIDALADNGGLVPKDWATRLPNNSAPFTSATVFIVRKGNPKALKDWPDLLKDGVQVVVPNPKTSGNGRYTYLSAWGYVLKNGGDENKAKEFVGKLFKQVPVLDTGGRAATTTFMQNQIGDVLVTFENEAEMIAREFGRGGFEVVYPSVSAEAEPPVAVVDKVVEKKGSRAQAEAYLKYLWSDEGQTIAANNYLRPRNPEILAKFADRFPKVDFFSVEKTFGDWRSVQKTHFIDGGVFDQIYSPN
# PA1493 (cysP) [16] = target: T7, PA1493 (cysP); conditions: Tm change vs ligand-free protein
# PA1074 (braC) [17] = target: T8, PA1074 (braC) (Pseudomonas aeruginosa, UniProt P21175); experiment: biochemical; type: binding, Pseudomonas aeruginosa PAO1
# T8 sequence (P21175 27-373): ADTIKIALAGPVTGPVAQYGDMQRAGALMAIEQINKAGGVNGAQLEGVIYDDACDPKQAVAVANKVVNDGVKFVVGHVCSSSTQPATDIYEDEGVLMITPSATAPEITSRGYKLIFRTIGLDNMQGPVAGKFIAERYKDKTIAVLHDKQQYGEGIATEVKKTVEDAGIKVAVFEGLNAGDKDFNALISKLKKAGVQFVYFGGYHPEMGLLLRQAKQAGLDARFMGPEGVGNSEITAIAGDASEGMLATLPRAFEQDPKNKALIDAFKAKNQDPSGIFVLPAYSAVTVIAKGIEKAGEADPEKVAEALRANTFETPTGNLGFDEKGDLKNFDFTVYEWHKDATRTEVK
# PA1074 (braC) [18] = target: T8, PA1074 (braC); type: binding, Pseudomonas aeruginosa PAO1; conditions: Tm change vs ligand-free protein
# PA3610 (potD) [19] = target: T3, PA3610 (potD); experiment: DSF thermal shift ligand screening, PA3610; type: binding, Pseudomonas aeruginosa PAO1; conditions: Tm change vs ligand-free protein
# PA1342 (aatJ) [20] = target: T6, PA1342 (aatJ); experiment: DSF thermal shift ligand screening, PA1342; type: binding, Pseudomonas aeruginosa PAO1; conditions: Tm change vs ligand-free protein
# PA0222 [21] = target: T4, PA0222; type: binding; conditions: Tm change vs ligand-free protein
compound,measurement,setting,value
C[N+](C)(C)CC(=O)O [Glycine-betaine],Kd,PA3889 (opuCC) [1]; read-out: KD by ITC,3 ± 0.4 µM
same,Tm DSF (Tm increase),PA3889 (opuCC) [2],3.2 °C
same,Chemotaxis response in words,[3],very strong taxis
OC[C@@H](O)[C@@H](O)[C@H](O)[C@H](O)CO [Mannitol],Kd,PA2338 [4]; read-out: KD by ITC,0.83 ± 0.2 µM
same,Tm DSF (Tm increase),PA2338 [5],4.1 °C
NCCc1c[nH]cn1 [Histamine],No Binding Observed by ITC,PA3610 (potD) [6],did not reveal any binding
same,No Binding Observed by ITC,PA0222 [7],failed to bind; also recorded: no measurable affinity
same,KD by ITC,"PA2592 [8]; PA2592, 25 °C",No binding
same,No Binding Observed by ITC,"PA2592 [8]; PA2592, 25 °C",no binding
same,Tm DSF (Tm increase),PA2592 [9],3.9 °C
NC(=O)C[C@H](N)C(=O)O [L-Asn],No Binding Observed by ITC,PA1342 (aatJ) [10],No binding was observed
Iron(III) citrate,No Binding Observed by ITC,PA4687 (hitA) [11],did not show any binding
same,Tm DSF (Tm increase),PA4687 (hitA) [12],no significant increases in Tm
O=S(O)(O)=S [Thiosulphate],Tm DSF (Tm increase),PA0283 (sbp) [13],2.1 °C
same,KD by ITC,PA0283 (sbp) [14],No binding No binding
same,Kd,PA1493 (cysP) [15],0.29 ± 0.2 µM
same,Chemotaxis response in words,[3],moderate taxis
same,Tm DSF (Tm increase),PA1493 (cysP) [16],7.4 °C
NCCCCN=C(N)N [Agmatine],Kd,PA2592 [8],15 µM
same,Tm DSF (Tm increase),PA2592 [9],5.3 °C
OC[C@H]1O[C@H](O[C@H]2[C@H](O)[C@@H](O)C(O)O[C@@H]2CO)[C@H](O)[C@@H](O)[C@@H]1O (mixture of isomers) [Maltose],No Binding Observed by ITC,PA2338 [4],absence of maltose binding
CC(C)C[C@H](N)C(=O)O [L-Leu],Kd,PA1074 (braC) [17],0.29 µM
same,Tm DSF (Tm increase),PA1074 (braC) [18],4.0 12.1 10.1 10.2 3.0 3.5 5.0 3.8 4.2 °C
NCCCCNCCCN [Spermidine],No Binding Observed by ITC,PA3610 (potD) [6],did not reveal any binding
same,No Binding Observed by ITC,PA0222 [7],failed to bind; also recorded: no measurable affinity
same,Tm DSF (Tm increase),PA3610 (potD) [19],did not stabilize the protein
same,No Binding Observed by ITC,"PA2592 [8]; PA2592, 25 °C",no binding
NCCCCN [Putrescine],Kd,PA3610 (potD) [6]; read-out: KD by ITC (converted),4.8 ± 0.4 µM
same,No Binding Observed by ITC,PA0222 [7],no measurable affinity
same,Tm DSF (Tm increase),PA3610 (potD) [19],13 n. d.^2 °C
same,Tm DSF (Tm increase),PA3610 (potD) [19]; listed as putrescine,13 °C
same,Kd,PA2592 [8],31 ± 4 µM
same,Tm DSF (Tm increase),PA2592 [9],4.4 °C
N[C@@H](CC(=O)O)C(=O)O [L-Asp],Tm DSF (Tm increase),PA1342 (aatJ) [20],10.9 °C
"CC(N)CCC(=O)O (centres unmarked) [4-aminovalerate, 4-aminovaleric acid]",KD by ITC,PA0222 [7],No binding
same,No Binding Observed by ITC,PA0222 [7],failed to bind
same,Tm DSF (Tm increase),PA0222 [21],2.2 °C
NC(=O)CC[C@H](N)C(=O)O [L-Gln],No Binding Observed by ITC,PA1342 (aatJ) [10],No binding was observed
"NCCCC(=O)O [GABA, γ-amino-butyric acid]",Tm DSF (Tm increase),PA0222 [21],9.6 °C
C[N+](C)(C)C[C@H](O)CC(=O)[O-] [L-carnitine],KD by ITC,PA3889 (opuCC) [1],No binding
same,No Binding Observed by ITC,PA3889 (opuCC) [1],no binding heats were observed
same,Tm DSF (Tm increase),PA3889 (opuCC) [2],2.8 °C
same,Chemotaxis,"[3]; capillary assay, 30 min",Yes Yes (Positive chemotaxis was considered when the number of bacterial cells per capillary was superior to 5000.)
same,Chemotaxis response in words,[3],very strong taxis
